Data set [1] can be described thus: Photophysical characterization (absorption, emission, QY, lifetime). As to conditions: in ACN. It is filed as physicochemical. Here is the method:
UV–Vis absorption spectra were recorded on a Cary60 spectrometer. Photoemission spectra, luminescence lifetimes, and quantum yields were acquired with a HORIBA Jobin Yvon IBH Fluorolog-TCSPC spectrofluorometer equipped with a Quanta-φ integrating sphere. […] Emission-decay data were collected in 2048 channels to 10000 counts in the peak channel. IRF was measures using colloidal silica suspension in H2O to scatter light. Data were analyzed with the software DAS6 (TCSPC decay-analysis software) using a nonlinear least-squares method to fit of the decay to a sum of exponentials. The value of χ^2, residuals and the autocorrelation function (Durbin-Watson parameter) were used to determine the quality of the fit. For measurements in the presence of hDHODH, 11a was incubated, at 1 μM concentration in TRIS Buffer 0.1 mM (pH 8) with 0.1% DMSO, alone or with different concentrations of recombinant protein ranging from 31.5 to 504 nM concentration. After 5 min incubation UV–Vis absorption spectra were recorded on a Cary60 spectrophotometer and photoemission spectra were acquired with a HORIBA Jobin Yvon IBH Fluorolog-TCSPC spectrofluorometer with excitation λ of 366 nm and maximum of emission at 500 nm; a.u. data were analyzed with GraphPad Prism using One Site – Specific Binding equation.

A further data set can be described thus: Experimental pKa. It is filed as physicochemical.
A further data set concerns THP-1 cells. As to the kind of experiment: Co-localization competition assay with Bay2402234 (Manders coefficient). In kind it is cell-based, human. As to conditions: THP-1 cells, 10 μM, 3 h. Here is the method:
Colocalization between hDHODH inhibitors and mitochondria was quantified using Manders coefficient (Figure D).
THP-1 cells were incubated for 3 h with hDHODHi 11a and Bay240223410 at 10 μM, either alone or in combination. After incubation, the cells were washed and stained with Red-MitoTracker CMXRos (Thermo Fisher, Carlsbad, CA, USA) at a concentration of 100 nM for 30 min at 37 °C. Cells were imaged with a Leica TCS SP8 confocal system (Leica Microsystems) equipped with 4 excitation lasers (405 Diode, Argon, DPSS561, HeNe633). Images were acquired with a HCX PL APO 63×/1.4 NA oil-immersion objective with a resolution of 81 nm × 81 nm and were processed and analyzed with ImageJ software (Rasband, W.S., U.S. National Institutes of Health, Bethesda, […]). In particular, colocalization was analyzed with JACoP plugin and Manders’ coefficient was calculated

Another data set deals with hDHODH enzyme GST-tagged (Homo sapiens, UniProt Q02127). As to the kind of experiment: hDHODH inhibition assay (DCIP reduction).
Chain of hDHODH enzyme GST-tagged (Q02127 whole entry): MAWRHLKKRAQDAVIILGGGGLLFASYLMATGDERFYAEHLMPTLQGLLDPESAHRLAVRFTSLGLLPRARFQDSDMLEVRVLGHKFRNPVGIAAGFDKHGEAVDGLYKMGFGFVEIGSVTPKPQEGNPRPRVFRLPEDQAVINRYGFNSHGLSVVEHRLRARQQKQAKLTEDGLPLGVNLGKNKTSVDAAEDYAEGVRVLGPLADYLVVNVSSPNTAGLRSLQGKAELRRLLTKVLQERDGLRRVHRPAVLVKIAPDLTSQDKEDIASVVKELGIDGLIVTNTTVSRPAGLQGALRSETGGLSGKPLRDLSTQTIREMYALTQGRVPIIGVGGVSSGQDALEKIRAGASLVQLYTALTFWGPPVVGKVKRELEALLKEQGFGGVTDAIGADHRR

Protocol for hDHODH enzyme GST-tagged: The enzyme (around 60 nM) was preincubated for 5 min at 37 °C in Tris-buffer solution (pH 8.0) with coenzyme Q10 (100 μM), tested compounds at different concentrations (final DMSO concentration 0.1% v/v), and DCIP (50 μM). The reaction was initiated by addition of DHO (500 μM) and the reduction was monitored at λ = 650 nm. […] Values are means ± SE of three independent experiments.

The pKa is the negative logarithm of the acid dissociation constant. With `CCOC(=O)c1c(O)nn2ccccc12` [Compound 2, Ethyl 2-hydroxypyrazolo[1,5-a]pyridine-3-carboxylate], in data set [1], the Lifetime turned out to be 7 ns, the “QY (luminescence quantum yield)” value worked out at 0.42, the Stokes shift came out at 5139 cm^–1 and the λabs amounted to 313 nm. In data set [1], this molecule returned a λem of 373 nm. Besides, in “Experimental pKa”, the pKa was determined as 5.39.

For `Oc1cc2ccccn2n1` [Compound 1, Pyrazolo[1,5-a]pyridin-2-ol], in data set [1], the Lifetime came out at 12 ns, the “QY (luminescence quantum yield)” value is given as 0.21, the Stokes shift was 7567 cm^–1 and the λabs was 310 nm. The λem in data set [1] is given as 405 nm. This molecule also showed a pKa in the data set “Experimental pKa” of around 5.

For `CCn1c(CO)nn(-c2cc(O[C@@H](C)C(F)(F)F)c(C(=O)Nc3c(F)cccc3Cl)cc2F)c1=O` [Bay2402234, reference compound], the “fluorescence at the wavelength specific for 11a” value in the data set on THP-1 cells is on record as “no detectable fluorescence”.

As a reminder, the IC50 is the point on the concentration scale where inhibition reaches its midpoint. Low values mean greater potency in that assay, high ones weaker potency in that assay. With `Oc1nn2ccccc2c1-c1ccc2cc(-c3ccccc3)cnc2c1` [Compound 13, 3-(3-Phenylquinolin-7-yl)pyrazolo[1,5-a]pyridin-2-ol], in data set [1], the Lifetime is 3.7 ns, the “QY (luminescence quantum yield)” value turned out to be 0.74, the Stokes shift was determined as 5288 cm^–1 and the λabs stood at 370 nm. This molecule also showed a λem in data set [1] of 460 nm. Also, the IC50 against hDHODH enzyme GST-tagged amounted to 33 µM.
